≈ marks a conversion by molar mass, not a printed value.
Experiments:
[1] = system: E. coli Tol C; experiment: Antibacterial assay (Test A), microtitration MIC, Gram negative; format: cell-based; conditions: Escherichia coli, read-out: Minimum Inhibitory Concentrations E. coli Tol C
Experimental: (§1) The compounds of the present invention were tested against an assortment of Gram-negative and Gram-positive organisms using standard microtitration techniques (Cohen et. al., Antimicrob., 1985;28:766;Heifetz, et. al., Antimicrob., 1974;6: 124).

[2] = system: H. influenzae HI3542; experiment: as above; format: cell-based; conditions: Haemophilus influenzae; Gram Negative Bacteria; strain HI3542; read-out: Minimum Inhibitory Concentrations H. influenzae HI3542
Experimental: as §1

[3] = system: M. catarrhalis BC3534; experiment: as above; format: cell-based; conditions: Moraxella catarrhalis; Gram Negative Bacteria; strain BC3534; read-out: Minimum Inhibitory Concentrations M. catarrhalis BC3534
Experimental: as §1

[4] = system: S pyogenes C203; experiment: Antibacterial assay (Test A), microtitration MIC, Gram positive; format: cell-based; conditions: Gram Positive Bacteria; strain C203; read-out: Minimum Inhibitory Concentrations S pyogenes C203
Experimental: as §1

[5] = system: E. faecalis MGH-2; experiment: as above; format: cell-based; conditions: Enterococcus faecalis, MGH2; Gram Positive Bacteria; strain MGH-2; read-out: Minimum Inhibitory Concentrations E. faecalis MGH-2
Experimental: as §1

[6] = system: S. aureus UC-76; experiment: as above; format: cell-based; conditions: Staphylococcus aureus, UC76; Gram Positive Bacteria; strain UC-76; read-out: Minimum Inhibitory Concentrations S. aureus UC-76
Experimental: as §1

[7] = system: E. coli transcription and translation (TnT); format: biochemical

| Compound | MIC [1] [µg/mL] | MIC [2] [µg/mL] | MIC [3] [µg/mL] | MIC [4] [µg/mL] | MIC [5] [µg/mL] | MIC [6] [µg/mL] | Inhibitory concentration in E. coli cell-free transcription/translation (TnT) assay [7] [µg/mL] |
| --- | --- | --- | --- | --- | --- | --- | --- |
| CC(=O)NC[C@H]1CN(c2ccc3c(c2)CCCN(c2c(F)cc4c(=O)c(C(=O)O)cn(C5CC5)c4c2F)C3)C(=O)O1 (stereo in doubt) [Example 13, 7-{7-[5-(Acetylamino-methyl)-2-oxo-oxazolidin-3-yl]-1,3,4,5-tetrahydro-benzo[c]azepin-2-yl}-1-cyclopropyl-6,8-difluoro-4-oxo-1,4-dihydro-quinoline-3-carboxylic Acid] | 4 (≈ 7.06 µM) | 0.06 (≈ 0.106 µM) | 1 (≈ 1.77 µM) | 2 (≈ 3.53 µM) | 8 (≈ 14.1 µM) | 0.5 (≈ 0.883 µM) | 0.6 |
| CC(=O)NC[C@H]1CN(c2ccc3c(c2)CCN(c2cc4c(cc2F)c(=O)c(C(=O)O)cn4C2CC2)CC3)C(=O)O1 [Example 9, 7-{7-[5-(Acetylamino-methyl)-2-oxo-oxazolidin-3-yl]-1,2,4,5-tetrahydro-benzo[d]azepin-3-yl}-1-cyclopropyl-6-fluoro-4-oxo-1,4-dihydro-quinoline-3-carboxylic Acid] | 4 (≈ 7.29 µM) | 0.06 (≈ 0.109 µM) | 0.5 (≈ 0.911 µM) | 4 (≈ 7.29 µM) | 8 (≈ 14.6 µM) | 0.13 (≈ 0.237 µM) | 13.0 |
| CC(=O)NC[C@H]1CN(c2ccc3c(c2)CCN(c2c(F)cc4c(=O)c(C(=O)O)cn(C5CC5)c4c2Cl)CC3)C(=O)O1 [Example 10, 7-{7-[5-(Acetylamino-methyl)-2-oxo-oxazolidin-3-yl]-1,2,4,5-tetrahydro-benzo[d]azepin-3-yl}-8-chloro-1-cyclopropyl-6-fluoro-4-oxo-1,4-dihydro-quinoline-3-carboxylic Acid] | 1 (≈ 1.72 µM) | 0.06 (≈ 0.103 µM) | 0.13 (≈ 0.223 µM) | 0.25 (≈ 0.429 µM) | 0.25 (≈ 0.429 µM) | 0.06 (≈ 0.103 µM) | 5.4 |
| CC(=O)NC[C@H]1CN(c2ccc3c(c2)CCN(c2nc4c(cc2F)c(=O)c(C(=O)O)cn4C2CC2)CC3)C(=O)O1 [Example 14, 7-{7-[5-(Acetylamino-methyl)-2-oxo-oxazolidin-3-yl]-1,2,4,5-tetrahydro-benzo[d]azepin-3-yl}-1-cyclopropyl-6-fluoro-4-oxo-1,4-dihydro-[1,8]naphthyridine-3-carboxylic Acid] | 16 (≈ 29.1 µM) | 0.06 (≈ 0.109 µM) | 2 (≈ 3.64 µM) | 8 (≈ 14.6 µM) | 16 (≈ 29.1 µM) | 0.5 (≈ 0.91 µM) | 15 |
| CC(=O)NC[C@H]1CN(c2ccc3c(c2)CCN(c2cc4c(c(C)c2F)c(=O)c(C(=O)O)cn4C2CC2)CC3)C(=O)O1 [Example 11, 7-{7-[5-(Acetylamino-methyl)-2-oxo-oxazolidin-3-yl]-1,2,4,5-tetrahydro-benzo[d]azepin-3-yl}-1-cyclopropyl-6-fluoro-5-methyl-4-oxo-1,4-dihydro-quinoline-3-carboxylic Acid] | 8 (≈ 14.2 µM) | 0.06 (≈ 0.107 µM) | 0.5 (≈ 0.889 µM) | 16 (≈ 28.4 µM) | 8 (≈ 14.2 µM) | 0.06 (≈ 0.107 µM) | 10 |
| COc1c(N2CCCc3cc(N4C[C@H](CNC(C)=O)OC4=O)ccc3C2)c(F)c(C)c2c(=O)c(C(=O)O)cn(C3CC3)c12 (stereo in doubt) [Example 2, 7-{7-[5-(Acetylamino-methyl)-2-oxo-oxazolidin-3-yl]-1,3,4,5-tetrahydro-benzo[c]azepin-2-yl}-1-cyclopropyl-6-fluoro-8-methoxy-5-methyl-4-oxo-1,4-dihydro-quinoline-3-carboxylic Acid] | 16 (≈ 27 µM) | 0.06 (≈ 0.101 µM) | 8 (≈ 13.5 µM) | 8 (≈ 13.5 µM) | 8 (≈ 13.5 µM) | 0.06 (≈ 0.101 µM) | 9.6 |

Source: US7304050B2, “Antibacterial agents” (Pfizer Inc., priority 2003, dated 2007)
